From the supplement of paper PMC10307832

Tests used:
Test in all cases: relative viability (nuclei count vs DMSO), 5 days (fraction); higher = more cells survive
[1] = compound: C/C(=N\NC(=S)N1CCC1)/C2=CC=CC=N2 + COc1cccc2cc(-c3nc([C@H]4CC[C@H](C(=O)O)CC4)n4ncnc(N)c34)[nH]c12 [OSI-027] (partner 0.5 µM)
How it was run: (§1)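 Lung cancer cell lines were pin-tool dosed in 1536-well plates on the day after seeding, with either a lone drug or a fixed anchor-drug dose plus five library-drug doses (not always all listed) in √10 steps. Nuclei were counted on 4× images after 5 days. Relative viability is the ratio of treated-well to vehicle-well nuclei counts, with each value a median of duplicate plates.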

[2] = compound: C/C(=N\NC(=S)N1CCC1)/C2=CC=CC=N2 + CS(=O)(=O)CCNCc1ccc(-c2ccc3ncnc(Nc4ccc(OCc5cccc(F)c5)c(Cl)c4)c3c2)o1 [Lapatinib] (partner 2 µM)
How it was run: as §1

[3] = compound: C/C(=N\NC(=S)N1CCC1)/C2=CC=CC=N2 + C[C@]1(O)C[C@@H](c2nc(-c3ccc4ccc(-c5ccccc5)nc4c3)c3c(N)nccn32)C1 [Linsitinib] (partner 1 µM)
How it was run: as §1

[4] = compound: C/C(=N\NC(=S)N1CCC1)/C2=CC=CC=N2 + Cc1nc(NC(=O)N2CCC[C@H]2C(N)=O)sc1-c1ccnc(C(C)(C)C(F)(F)F)c1 [Alpelisib] (partner 2 µM)
How it was run: as §1

| Cell Line | relative viability ([1]; first compound 0.05 µM) | relative viability ([1]; first compound 0.1581 µM) | relative viability ([1]; first compound 0.5 µM) | relative viability ([1]; first compound 1.581 µM) | relative viability ([1]; first compound 5 µM) | relative viability ([2]; first compound 0.05 µM) | relative viability ([2]; first compound 0.1581 µM) | relative viability ([2]; first compound 0.5 µM) | relative viability ([2]; first compound 1.581 µM) | relative viability ([2]; first compound 5 µM) | relative viability ([3]; first compound 0.05 µM) | relative viability ([3]; first compound 0.1581 µM) | relative viability ([3]; first compound 0.5 µM) | relative viability ([3]; first compound 1.581 µM) | relative viability ([3]; first compound 5 µM) | relative viability ([4]; first compound 0.05 µM) | relative viability ([4]; first compound 0.1581 µM) | relative viability ([4]; first compound 0.5 µM) | relative viability ([4]; first compound 1.581 µM) | relative viability ([4]; first compound 5 µM) |
| --- | --- | --- | --- | --- | --- | --- | --- | --- | --- | --- | --- | --- | --- | --- | --- | --- | --- | --- | --- | --- |
| 201T | 0.402 | 0.21 | 0.201 | 0.166 | 0.134 | 0.447 | 0.578 | 0.444 | 0.447 | 0.351 | 0.742 | 1 | 0.564 | 0.503 | 0.41 | 0.697 | 0.994 | 0.647 | 0.476 | 0.4 |
| A549 |  |  |  |  |  | 0.065 | 0.0607 | 0.0715 | 0.0714 | 0.0609 | 0.083 | 0.0782 | 0.0623 | 0.0706 | 0.053 | 0.0613 | 0.0588 | 0.054 | 0.0318 | 0.0406 |
| A-427 | 0.172 | 0.154 | 0.135 | 0.165 | 0.125 | 0.138 | 0.149 | 0.138 | 0.115 | 0.139 | 0.18 | 0.687 | 0.148 | 0.157 | 0.139 | 0.136 | 0.739 | 0.142 | 0.101 | 0.11 |
| ABC-1 | 0.257 | 0.191 | 0.239 | 0.226 | 0.2 | 0.475 | 0.513 | 0.495 | 0.459 | 0.456 | 0.247 | 0.239 | 0.24 | 0.221 | 0.207 | 0.371 | 0.226 | 0.234 | 0.27 | 0.281 |
| BEN | 0.206 | 0.142 | 0.166 | 0.183 | 0.202 | 0.178 | 0.201 | 0.21 | 0.203 | 0.188 | 0.168 | 0.171 | 0.167 | 0.174 | 0.189 | 0.195 | 0.194 | 0.266 | 0.232 | 0.198 |
| CAL-12T | 0.133 | 0.126 | 0.145 | 0.105 | 0.147 | 0.259 | 0.214 | 0.2 | 0.182 | 0.187 | 0.167 | 0.165 | 0.13 | 0.16 | 0.142 | 0.148 | 0.146 | 0.126 | 0.127 | 0.121 |
| COR-L23 | 0.116 | 0.111 | 0.108 | 0.0709 | 0.0853 | 0.144 | 0.156 | 0.119 | 0.0787 | 0.101 | 0.129 | 0.11 | 0.106 | 0.0712 | 0.0637 | 0.113 | 0.123 | 0.097 | 0.0558 | 0.0865 |
| COR-L 105 | 0.251 | 0.329 | 0.338 | 0.255 | 0.248 | 0.375 | 0.342 | 0.375 | 0.314 | 0.286 | 0.343 | 0.265 | 0.265 | 0.332 | 0.261 | 0.301 | 0.266 | 0.275 | 0.222 | 0.217 |
| Calu-6 |  |  |  |  |  | 0.132 | 0.146 | 0.124 | 0.128 | 0.131 | 0.11 | 0.1 | 0.127 | 0.115 | 0.108 | 0.141 | 0.151 | 0.148 | 0.151 | 0.124 |
| ChaGo-K-1 | 0.15 | 0.168 | 0.177 | 0.163 | 0.165 |  |  |  |  |  |  |  |  |  |  |  |  |  |  |  |
| EBC-1 |  |  |  |  |  | 0.225 | 0.195 | 0.226 | 0.191 | 0.161 | 0.13 | 0.19 | 0.137 | 0.0985 | 0.11 | 0.191 | 0.192 | 0.166 | 0.152 | 0.147 |
| EKVX | 0.12 | 0.122 | 0.11 | 0.111 | 0.146 | 0.108 | 0.137 | 0.119 | 0.153 | 0.131 | 0.141 | 0.122 | 0.0907 | 0.135 | 0.141 | 0.119 | 0.124 | 0.111 | 0.13 | 0.151 |
| EMC-BAC-2 | 0.199 | 0.22 | 0.233 | 0.189 | 0.209 | 0.113 | 0.169 | 0.178 | 0.173 | 0.153 | 0.365 | 0.56 | 0.144 | 0.178 | 0.191 | 0.288 | 0.426 | 0.122 | 0.163 | 0.152 |
| EPLC-272H | 0.159 | 0.13 | 0.138 | 0.103 | 0.112 | 0.139 | 0.195 | 0.229 | 0.155 | 0.161 | 0.16 | 0.424 | 0.173 | 0.149 | 0.16 | 0.125 | 0.293 | 0.185 | 0.166 | 0.203 |
| H3255 | 0.364 | 0.293 | 0.25 | 0.254 | 0.29 | 0.255 | 0.218 | 0.14 | 0.157 | 0.184 | 0.278 | 0.269 | 0.276 | 0.197 | 0.21 | 0.242 | 0.323 | 0.221 | 0.181 | 0.214 |
| HARA | 0.0966 | 0.0611 | 0.0659 | 0.0562 | 0.0621 | 0.102 | 0.115 | 0.155 | 0.0859 | 0.0828 | 0.212 | 0.0896 | 0.163 | 0.109 | 0.08 | 0.31 | 0.0915 | 0.122 | 0.145 | 0.0798 |
| HCC-15 | 0.079 | 0.0907 | 0.0888 | 0.0899 | 0.0898 | 0.082 | 0.078 | 0.0841 | 0.0904 | 0.0765 | 0.237 | 0.416 | 0.103 | 0.102 | 0.0909 | 0.191 | 0.453 | 0.0722 | 0.0749 | 0.0746 |
| HCC-44 | 0.183 | 0.221 | 0.261 | 0.195 | 0.297 | 0.292 | 0.184 | 0.177 | 0.156 | 0.232 | 0.553 | 0.141 | 0.143 | 0.154 | 0.183 | 0.473 | 0.143 | 0.178 | 0.162 | 0.218 |
